Assay results taken from US10064865B2, “Composition comprising phosphodiesterase type 5 inhibitor for inhibiting apoptosis of nerve cells” (ARIBIO INC., priority 2012, dated 2018).
Marks after values point to notes of the source that are not given here.

How the values were obtained:
Assay type in all cases: in vivo, Sprague-Dawley (SD) rats
[1] = Example 1 body weight measurements; details: for Body weights at 1 day before surgery / Body weights at surgery [A]: before treatment, in g
Procedure: Changes of body weight were measured at 1 day before neuron apoptosis, the day of neuron apoptosis, 1, 7 14, 21, 28 and 29 days after neuron apoptosis using an automatic electronic balance. To reduce the individual differences, the body weight gains after neuron apoptosis and continuous oral treatment of materials were calculated as follows. Body weight gains (g) during 29 days after neuron apoptosis=(Body weight at the 29 days after neuron apoptosis−body weight at the day of neuron apoptosis) [EQUATION 2]
(§1) All data were expressed as mean±standard deviation (S.D.) of ten rats. Multiple comparison tests for different dose groups were conducted. Variance homogeneity was examined using the Levene test (Levene A, Clin Otalary, 1981; 6:145-51). […] Statistical analyses were conducted using SPSS (Release 14K, SPSS Inc., USA; Ludbrook, Clin Exp Pharmacol Physiol, 1997; 24:294-6). In addition, the percent changes between neuron apoptosis control and mirodenafil treated rats were calculated to help the understanding of the efficacy of test material as follow equation 3. Percentage changes as compared with neuron apoptosis control (%)=[((Data of mirodenafil treated groups−Data of neuron apoptosis control)/Data of neuron apoptosis control)×100] [EQUATION 3]

[2] = system: neuron apoptosis-operated rats; experiment: Example 1 water tank task (cognitive motor behavior)
Procedure: Cognitive testing was conducted using the water tank task (J Neurosci Methods. 11:47-60(1984)). 14 and 28 after neuron apoptosis, the rats were given a series of 3 trials, 10 min apart in a large dark-colored tank (150 cm in diameters×50 cm in height) filled with clear water at a temperature of 22.0±1.0° C. A 15×30 cm submerged platform (2 mm below water surface) was placed in the northwest quadrant of the pool. The release point was always the southern end of the pool. The rats were lowered into the pool facing the wall and were released. The swim paths of the rats for each trials were recorded with a computer interfaced camera tracking system (Smart junior, PanLab, Spain), and the distances (m) and times (sec) taken to reach the escape platform were measured.
as §1

[3] = Example 1 body weight measurements; details: for Weight gains [B − A]: during 29 days after neuron apoptosis
[4] = 0.5 mg/kg s.c. once a day, at 14 days, Mean of trials
[5] = 0.5 mg/kg s.c. once a day, at 14 days, trial 1
[6] = 0.5 mg/kg s.c. once a day, at 14 days, trial 2
[7] = 0.5 mg/kg s.c. once a day, at 14 days, trial 3
[8] = 0.5 mg/kg s.c. once a day, at 28 days, Mean of trials
[9] = 0.5 mg/kg s.c. once a day, at 28 days, trial 1
[10] = 0.5 mg/kg s.c. once a day, at 28 days, trial 2
[11] = 0.5 mg/kg s.c. once a day, at 28 days, trial 3
[12] = 1 mg/kg s.c. once a day, at 14 days, Mean of trials
[13] = 1 mg/kg s.c. once a day, at 14 days, trial 1
[14] = 1 mg/kg s.c. once a day, at 14 days, trial 2
[15] = 1 mg/kg s.c. once a day, at 14 days, trial 3
[16] = 1 mg/kg s.c. once a day, at 28 days, Mean of trials
[17] = 1 mg/kg s.c. once a day, at 28 days, trial 1
[18] = 1 mg/kg s.c. once a day, at 28 days, trial 2
[19] = 1 mg/kg s.c. once a day, at 28 days, trial 3
[20] = 2 mg/kg s.c. once a day, at 14 days, Mean of trials
[21] = 2 mg/kg s.c. once a day, at 14 days, trial 1
[22] = 2 mg/kg s.c. once a day, at 14 days, trial 2
[23] = 2 mg/kg s.c. once a day, at 14 days, trial 3
[24] = 2 mg/kg s.c. once a day, at 28 days, Mean of trials
[25] = 2 mg/kg s.c. once a day, at 28 days, trial 1
[26] = 2 mg/kg s.c. once a day, at 28 days, trial 2
[27] = 2 mg/kg s.c. once a day, at 28 days, trial 3

With CCCOc1ccc(S(=O)(=O)N2CCN(CCO)CC2)cc1-c1nc2c(CCC)cn(CC)c2c(=O)[nH]1 [Mirodenafil, mirodenafil] the “Body weights at 1 day before surgery” value ([1]; 0.5 mg/kg group) was 540.70 ± 23.66, the “Body weights at surgery [A]” value ([1]; 0.5 mg/kg group) was 510.20 ± 26.08 and the “body weight gains during 29 days, change as compared with neuron apoptosis control” value (from here on “body weight gains during 29 days, change”) ([1]; 1 mg/kg) was 218.52%. For the same molecule, the “Body weights at 1 day before surgery” value ([1]; 1 mg/kg group) was 539.70 ± 27.54, the “Body weights at surgery [A]” value ([1]; 1 mg/kg group) was 510.30 ± 28.32 and the “body weight gains during 29 days, change” value ([1]; 2 mg/kg) was 155.74%. The “Body weights at 1 day before surgery” value ([1]; 2 mg/kg group) was 543.30 ± 26.39, the “Body weights at surgery [A]” value ([1]; 2 mg/kg group) was 513.40 ± 27.21 and the “The distance to reach the escape platform” value (“The distance” for short) [2, 4] was 13.36 ± 0.81^a m. The “The time to reach the escape platform” value [2, 4] was 119.6 ± 9.53^ad sec, the “The distance” value [2, 5] was 15.89 ± 1.14 m and the “The time to reach the escape platform” value [2, 5] was 149.8 ± 11.05^a sec. The “The distance” value [2, 6] was 13.35 ± 1.02^ad m, the “The time to reach the escape platform” value [2, 6] was 118.0 ± 10.38^ad sec and the “The distance” value [2, 7] was 10.83 ± 0.85^a m. For the same molecule, the “The time to reach the escape platform” value [2, 7] was 91.0 ± 11.49^ac sec, the “The distance” value [2, 8] was 11.38 ± 0.76^ac m and the “The time to reach the escape platform” value [2, 8] was 92.1 ± 9.98^ac sec. For the same molecule, the “The distance” value [2, 9] was 13.24 ± 0.83^ad m, the “The time to reach the escape platform” value [2, 9] was 113.7 ± 9.57^ac sec and the “The distance” value [2, 10] was 11.22 ± 1.08^ad m. The “The time to reach the escape platform” value [2, 10] was 88.5 ± 12.48^ac sec, the “The distance” value [2, 11] was 9.68 ± 0.75^ef m and the “The time to reach the escape platform” value [2, 11] was 74.1 ± 10.58^ac sec. The “distances to reach the escape platform, change as compared with neuron apoptosis control” value ([2]; 0.5 mg/kg, trial 1 of 28 days) was −9.80%, the “time to reach the escape platform, change as compared with neuron apoptosis control” value ([2]; 0.5 mg/kg, trial 1 of 28 days) was −11.45% and the “distances to reach the escape platform, change as compared with neuron apoptosis control” value ([2]; 0.5 mg/kg, trial 2 of 14 days) was −7.93%. The “time to reach the escape platform, change as compared with neuron apoptosis control” value ([2]; 0.5 mg/kg, trial 2 of 14 days) was −10.47%, the “distances to reach the escape platform, change as compared with neuron apoptosis control” value ([2]; 0.5 mg/kg, trial 2 of 28 days) was −14.02% and the “time to reach the escape platform, change as compared with neuron apoptosis control” value ([2]; 0.5 mg/kg, trial 2 of 28 days) was −22.23%. For the same molecule, the “distances to reach the escape platform, change as compared with neuron apoptosis control” value ([2]; 0.5 mg/kg, trial 3 of 14 days) was −9.42%, the “time to reach the escape platform, change as compared with neuron apoptosis control” value ([2]; 0.5 mg/kg, trial 3 of 14 days) was −18.37% and the “distances to reach the escape platform, change as compared with neuron apoptosis control” value ([2]; 0.5 mg/kg, trial 3 of 28 days) was −17.56%. For the same molecule, the “time to reach the escape platform, change as compared with neuron apoptosis control” value ([2]; 0.5 mg/kg, trial 3 of 28 days) was −29.16%, the “The distance” value [2, 12] was 12.83 ± 1.29^ac m and the “The time to reach the escape platform” value [2, 12] was 116.7 ± 6.30^ac sec. The “The distance” value [2, 13] was 15.93 ± 1.21 m, the “The time to reach the escape platform” value [2, 13] was 150.9 ± 9.00^a sec and the “The distance” value [2, 14] was 12.89 ± 1.61^ac m. The “The time to reach the escape platform” value [2, 14] was 115.3 ± 8.19^ac sec, the “The distance” value [2, 15] was 9.66 ± 1.42^ac m and the “The time to reach the escape platform” value [2, 15] was 83.9 ± 10.10^ac sec. The “The distance” value [2, 16] was 9.39 ± 1.33^ac m, the “The time to reach the escape platform” value [2, 16] was 81.0 ± 8.68^ac sec and the “The distance” value [2, 17] was 12.65 ± 1.24^ac m. For the same molecule, the “The time to reach the escape platform” value [2, 17] was 106.6 ± 10.52^bc sec, the “The distance” value [2, 18] was 9.33 ± 2.17^ac m and the “The time to reach the escape platform” value [2, 18] was 78.4 ± 13.55^ac sec. The “The distance” value [2, 19] was 6.19 ± 1.93^ef m, the “The time to reach the escape platform” value [2, 19] was 58.1 ± 9.22^ac sec and the “distances to reach the escape platform, change as compared with neuron apoptosis control” value ([2]; 1 mg/kg, trial 1 of 28 days) was −13.80%. The “time to reach the escape platform, change as compared with neuron apoptosis control” value ([2]; 1 mg/kg, trial 1 of 28 days) was −16.98%, the “distances to reach the escape platform, change as compared with neuron apoptosis control” value ([2]; 1 mg/kg, trial 2 of 14 days) was −11.07% and the “time to reach the escape platform, change as compared with neuron apoptosis control” value ([2]; 1 mg/kg, trial 2 of 14 days) was −12.52%. For the same molecule, the “time to reach the escape platform, change as compared with neuron apoptosis control” value ([2]; 1 mg/kg, trial 2 of 28 days) was −31.11%, the “distances to reach the escape platform, change as compared with neuron apoptosis control” value ([2]; 1 mg/kg, trial 3 of 14 days) was −19.20% and the “time to reach the escape platform, change as compared with neuron apoptosis control” value ([2]; 1 mg/kg, trial 3 of 14 days) was −24.82%. For the same molecule, the “distances to reach the escape platform, change as compared with neuron apoptosis control” value ([2]; 1 mg/kg, trial 3 of 28 days) was −47.33%, the “time to reach the escape platform, change as compared with neuron apoptosis control” value ([2]; 1 mg/kg, trial 3 of 28 days) was −44.46% and the “The distance” value [2, 20] was 12.79 ± 0.64^ac m. The “The time to reach the escape platform” value [2, 20] was 116.6 ± 10.88^ac sec, the “The distance” value [2, 21] was 16.18 ± 1.49 m and the “The time to reach the escape platform” value [2, 21] was 151.2 ± 10.59^a sec. For the same molecule, the “The distance” value [2, 22] was 12.68 ± 0.82^ac m, the “The time to reach the escape platform” value [2, 22] was 115.9 ± 12.51^ac sec and the “The distance” value [2, 23] was 9.52 ± 1.27^ac m. For the same molecule, the “The time to reach the escape platform” value [2, 23] was 82.7 ± 15.17^ac sec, the “The distance” value [2, 24] was 9.46 ± 1.25^ac m and the “The time to reach the escape platform” value [2, 24] was 80.6 ± 6.63^ac sec. For the same molecule, the “The distance” value [2, 25] was 12.62 ± 1.21^ac m, the “The time to reach the escape platform” value [2, 25] was 106.5 ± 9.79^bc sec and the “The distance” value [2, 26] was 9.18 ± 1.46^ac m. For the same molecule, the “The time to reach the escape platform” value [2, 26] was 78.2 ± 8.19^ac sec, the “The distance” value [2, 27] was 6.56 ± 1.85^ef m and the “The time to reach the escape platform” value [2, 27] was 57.2 ± 6.43^ac sec. The “distances to reach the escape platform, change as compared with neuron apoptosis control” value ([2]; 2 mg/kg, trial 1 of 28 days) was −14.01%, the “time to reach the escape platform, change as compared with neuron apoptosis control” value ([2]; 2 mg/kg, trial 1 of 28 days) was −17.06% and the “distances to reach the escape platform, change as compared with neuron apoptosis control” value ([2]; 2 mg/kg, trial 2 of 14 days) was −12.54%. For the same molecule, the “time to reach the escape platform, change as compared with neuron apoptosis control” value ([2]; 2 mg/kg, trial 2 of 14 days) was −12.06%, the “distances to reach the escape platform, change as compared with neuron apoptosis control” value ([2]; 2 mg/kg, trial 2 of 28 days) was −29.65% and the “time to reach the escape platform, change as compared with neuron apoptosis control” value ([2]; 2 mg/kg, trial 2 of 28 days) was −31.28%. The “distances to reach the escape platform, change as compared with neuron apoptosis control” value ([2]; 2 mg/kg, trial 3 of 14 days) was −20.37%, the “time to reach the escape platform, change as compared with neuron apoptosis control” value ([2]; 2 mg/kg, trial 3 of 14 days) was −25.90% and the “distances to reach the escape platform, change as compared with neuron apoptosis control” value ([2]; 2 mg/kg, trial 3 of 28 days) was −44.14%. For the same molecule, the “time to reach the escape platform, change as compared with neuron apoptosis control” value ([2]; 2 mg/kg, trial 3 of 28 days) was −45.32%, the “body weight gains during 29 days, change” value ([3]; 0.5 mg/kg) was 45.53% and the “Body weights at 29 days after surgery [B]” value (“Body weights at 29 days” for short) ([3]; 0.5 mg/kg s.c. once a day) was 502.60 ± 23.09^a. For the same molecule, the “Weight gains [B − A]” value ([3]; 0.5 mg/kg s.c. once a day) was −7.60 ± 9.19^a g, the “Body weights at 29 days” value ([3]; 1 mg/kg s.c. once a day) was 526.40 ± 23.45^bd and the “Weight gains [B − A]” value ([3]; 1 mg/kg s.c. once a day) was 16.10 ± 7.80^ac g. The “Body weights at 29 days” value ([3]; 2 mg/kg s.c. once a day) was 520.90 ± 30.21^b and the “Weight gains [B − A]” value ([3]; 2 mg/kg s.c. once a day) was 7.50 ± 11.20^ac g.
